# Experimental data published in patent publication US12077503B2, “Substituted cyclic amides and their use as herbicides” (FMC CORPORATION, priority 2015, dated 2024).
# How the values were obtained:
# Format in all cases: in vivo
# [1] = system: barnyardgrass (Echinochloa crus-galli); experiment: Test G Pre-Emergence Protocol; conditions: evaluated after 13 days
# Experimental: (§1) Seeds of corn (Zea mays), giant foxtail (Setaria faberi), barnyardgrass (Echinochloa crus-galli), ivy-leaved morning glory (Ipomoea hederacea), redroot pigweed (Amaranthus retroflexus) and velvetleaf (Abutilon theophrasti) were sown in standard soil in pots. After cultivation for one day under controlled conditions in a glasshouse (at 24/16° C., day/night; 14 hours light; 65% humidity), the plants were sprayed with an aqueous spray solution derived from the formulation of the technical active ingredient in acetone/water (50:50) solution containing 0.5% Tween 20 (polyoxyethylene sorbitan monolaurate, CAS RN 9005-64-5) to give a final dose of 15.625, 62.5 or 250 g/ha of test compound.
# (§2) The test plants were then grown on under controlled conditions in a glasshouse (at 24/16° C., day/night; 14 hours light; 65% humidity) and watered twice daily. After 13 days the test was evaluated (100=total damage to plant; 0=no damage to plant). A dash (-) means no test result.
# corn (Zea mays) = experiment: Test G Pre-Emergence Protocol; conditions: evaluated after 13 days
# Experimental: as §1, §2
# [2] = system: giant foxtail (Setaria faberi); experiment: Test G Pre-Emergence Protocol; conditions: evaluated after 13 days
# Experimental: as §1, §2
# [3] = system: ivy-leaved morning glory (Ipomoea hederacea); experiment: Test G Pre-Emergence Protocol; conditions: evaluated after 13 days
# Experimental: as §1, §2
# [4] = system: redroot pigweed (Amaranthus retroflexus); experiment: Test G Pre-Emergence Protocol; conditions: evaluated after 13 days
# Experimental: as §1, §2
# [5] = system: velvetleaf (Abutilon theophrasti); experiment: Test G Pre-Emergence Protocol; conditions: evaluated after 13 days
# Experimental: as §1, §2
# [6] = system: barnyardgrass (Echinochloa crus-galli); experiment: Test G Post-Emergence Protocol
# In short: (§3)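 Sow in soil; grow 8 d (24/16 °C, 14 h light, 65% humidity); spray 15.625/62.5/250 g/ha in acetone:water 50:50 + 0.5% Tween 20; grow on, water twice daily; score damage 0–100 at 13 d.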
# [7] = system: giant foxtail (Setaria faberi); experiment: Test G Post-Emergence Protocol
# In short: as §3
# [8] = system: redroot pigweed (Amaranthus retroflexus); experiment: Test G Post-Emergence Protocol
# In short: as §3
# [9] = system: velvetleaf (Abutilon theophrasti); experiment: Test G Post-Emergence Protocol
# In short: as §3
# [10] = system: barnyardgrass (Echinochloa crus-galli); experiment: Test C flooded paddy test; conditions: Flood; for Plant response rating (scale of 0 to 100), Barnyardgrass: 0 is no effect, 100 is complete control
# In short: (§4)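 Test compounds were dosed straight into the flood water of pots holding 2-leaf-stage plants, with water kept 3 cm above the soil. Greenhouse plants were scored visually against controls after 13 to 15 d, from 0 (no effect) to 100 (complete control).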
# [11] = system: ducksalad (Heteranthera limosa); experiment: Test C flooded paddy test; conditions: Flood; for Plant response rating (scale of 0 to 100), Ducksalad: 0 is no effect, 100 is complete control
# In short: as §4
# rice (Oryza sativa) = experiment: Test C flooded paddy test; conditions: Flood; for Plant response rating (scale of 0 to 100), Rice: 0 is no effect, 100 is complete control
# In short: as §4
# [12] = system: sedge, umbrella (small-flower umbrella sedge, Cyperus difformis); experiment: Test C flooded paddy test; conditions: Flood; for Plant response rating (scale of 0 to 100), Sedge, Umbrella: 0 is no effect, 100 is complete control
# In short: as §4
# [13] = 62.5 g ai/ha, 100=total damage to plant, 0=no damage to plant
# [14] = 15.625 g ai/ha, evaluated after 13 days (100=total damage to plant; 0=no damage to plant)
# [15] = 62.5 g ai/ha, evaluated after 13 days
# [16] = 250 g ai/ha, evaluated after 13 days
# [17] = 31 g ai/ha, scale 0 to 100 (0 no effect, 100 complete control), 13 to 15 d
structure (smiles),measurement,setting,value
CN1C[C@H](c2cccc(C(F)(F)F)c2)[C@@H](C(=O)Nc2cccnc2F)C1=O [Compound 1397],Barnyardgrass damage rating (100=total damage to plant; 0=no damage to plant),[1]; 250 g ai/ha,90
same,pest or weed control at 15.625 g/ha,"[1]; Echinochloa crus-galli, pre-emergence, 312 h, 15.625 g ai/ha, read-out: Barnyard grass damage rating (100=total damage to plant; 0=no damage to plant)",90%
same,pest or weed control at 62.5 g/ha,"[1]; Echinochloa crus-galli, pre-emergence, 312 h, 62.5 g ai/ha, 100=total damage to plant, 0=no damage to plant, read-out: plant damage rating, Barnyardgrass",90%
same,Corn damage rating (100=total damage to plant; 0=no damage to plant),corn (Zea mays); 15.625 g ai/ha,80
same,Corn damage rating (100=total damage to plant; 0=no damage to plant),corn (Zea mays); 250 g ai/ha,90
same,plant injury at 62.5 g/ha,"corn (Zea mays); Zea mays, pre-emergence, 312 h, 62.5 g ai/ha, 100=total damage to plant, 0=no damage to plant, read-out: plant damage rating, Corn",80%
same,"Foxtail, Giant damage rating (100=total damage to plant; 0=no damage to plant)",[2]; 15.625 g ai/ha,90
same,"Foxtail, Giant damage rating (100=total damage to plant; 0=no damage to plant)",[2]; 250 g ai/ha,90
same,pest or weed control at 62.5 g/ha,"[2]; Setaria faberi, pre-emergence, 312 h, 62.5 g ai/ha, 100=total damage to plant, 0=no damage to plant, read-out: plant damage rating, Foxtail, Giant",90%
same,"Morningglory, Ivy-leaved damage rating (100=total damage to plant; 0=no damage to plant)",[3]; 250 g ai/ha,80
same,pest or weed control at 15.625 g/ha,"[3]; Ipomoea, pre-emergence, 312 h, 15.625 g ai/ha, read-out: Morning-glory, Ivy-leaved damage rating (100=total damage to plant; 0=no damage to plant)",60%
same,pest or weed control at 62.5 g/ha,"[3]; Ipomoea, pre-emergence, 312 h, 62.5 g ai/ha, 100=total damage to plant, 0=no damage to plant, read-out: plant damage rating, Morningglory, Ivy-leaved",70%
same,"Pigweed, Redroot damage rating (100=total damage to plant; 0=no damage to plant)",[4]; 15.625 g ai/ha,0
same,"Pigweed, Redroot damage rating (100=total damage to plant; 0=no damage to plant)",[4]; 250 g ai/ha,80
same,pest or weed control at 62.5 g/ha,"[4]; Amaranthus retroflexus, pre-emergence, 312 h, 62.5 g ai/ha, 100=total damage to plant, 0=no damage to plant, read-out: plant damage rating, Pigweed, Redroot",20%
same,Velvetleaf damage rating (100=total damage to plant; 0=no damage to plant),[5]; 15.625 g ai/ha,0
same,Velvetleaf damage rating (100=total damage to plant; 0=no damage to plant),[5]; 250 g ai/ha,70
same,pest or weed control at 62.5 g/ha,"[5]; Abutilon theophrasti, pre-emergence, 312 h, 62.5 g ai/ha, 100=total damage to plant, 0=no damage to plant, read-out: plant damage rating, Velvetleaf",10%
same,pest or weed control at 15.625 g/ha,"[6]; Echinochloa crus-galli, post-emergence, 312 h, 15.625 g ai/ha, evaluated after 13 days (100=total damage to plant; 0=no damage to plant), read-out: Barnyardgrass damage rating",80%
same,pest or weed control at 62.5 g/ha,"[6]; Echinochloa crus-galli, post-emergence, 312 h, 62.5 g ai/ha, evaluated after 13 days, read-out: Barnyardgrass damage rating (100=total damage to plant; 0=no damage to plant)",80%
same,pest or weed control at 250 g/ha,"[6]; Echinochloa crus-galli, post-emergence, 312 h, 250 g ai/ha, evaluated after 13 days, read-out: damage to plant, Barnyardgrass (100=total damage to plant; 0=no damage to plant)",80%
same,pest or weed control at 15.625 g/ha,"[7]; Setaria faberi, post-emergence, 312 h, 15.625 g ai/ha, evaluated after 13 days (100=total damage to plant; 0=no damage to plant), read-out: Foxtail, Giant damage rating",80%
same,pest or weed control at 62.5 g/ha,"[7]; Setaria faberi, post-emergence, 312 h, 62.5 g ai/ha, evaluated after 13 days, read-out: Foxtail, Giant damage rating (100=total damage to plant; 0=no damage to plant)",80%
same,pest or weed control at 250 g/ha,"[7]; Setaria faberi, post-emergence, 312 h, 250 g ai/ha, evaluated after 13 days, read-out: damage to plant, Foxtail, Giant (100=total damage to plant; 0=no damage to plant)",80%
same,pest or weed control at 15.625 g/ha,"[8]; Amaranthus retroflexus, post-emergence, 312 h, 15.625 g ai/ha, evaluated after 13 days (100=total damage to plant; 0=no damage to plant), read-out: Pigweed, Redroot damage rating",0%
same,pest or weed control at 62.5 g/ha,"[8]; Amaranthus retroflexus, post-emergence, 312 h, 62.5 g ai/ha, evaluated after 13 days, read-out: Pigweed, Redroot damage rating (100=total damage to plant; 0=no damage to plant)",30%
same,pest or weed control at 250 g/ha,"[8]; Amaranthus retroflexus, post-emergence, 312 h, 250 g ai/ha, evaluated after 13 days, read-out: damage to plant, Pigweed, Redroot (100=total damage to plant; 0=no damage to plant)",60%
same,pest or weed control at 15.625 g/ha,"[9]; Abutilon theophrasti, post-emergence, 312 h, 15.625 g ai/ha, evaluated after 13 days (100=total damage to plant; 0=no damage to plant), read-out: Velvetleaf damage rating",0%
same,pest or weed control at 62.5 g/ha,"[9]; Abutilon theophrasti, post-emergence, 312 h, 62.5 g ai/ha, evaluated after 13 days, read-out: Velvetleaf damage rating (100=total damage to plant; 0=no damage to plant)",10%
same,pest or weed control at 250 g/ha,"[9]; Abutilon theophrasti, post-emergence, 312 h, 250 g ai/ha, evaluated after 13 days, read-out: damage to plant, Velvetleaf (100=total damage to plant; 0=no damage to plant)",40%
CN1C[C@H](c2ccc(C(F)(F)F)cc2)[C@@H](C(=O)Nc2cccc(F)n2)C1=O [Compound 1400],Barnyardgrass damage rating (100=total damage to plant; 0=no damage to plant),[1]; 15.625 g ai/ha,30
same,"plant damage rating, Barnyardgrass",[1]; [13],80
same,Barnyardgrass damage rating (100=total damage to plant; 0=no damage to plant),[1]; 250 g ai/ha,80
same,Corn damage rating (100=total damage to plant; 0=no damage to plant),corn (Zea mays); 15.625 g ai/ha,20
same,"plant damage rating, Corn",corn (Zea mays); [13],40
same,Corn damage rating (100=total damage to plant; 0=no damage to plant),corn (Zea mays); 250 g ai/ha,60
same,"Foxtail, Giant damage rating (100=total damage to plant; 0=no damage to plant)",[2]; 15.625 g ai/ha,60
same,"plant damage rating, Foxtail, Giant",[2]; [13],90
same,"Foxtail, Giant damage rating (100=total damage to plant; 0=no damage to plant)",[2]; 250 g ai/ha,90
same,"Morning-glory, Ivy-leaved damage rating (100=total damage to plant; 0=no damage to plant)",[3]; 15.625 g ai/ha,0
same,"plant damage rating, Morningglory, Ivy-leaved",[3]; [13],0
same,"Pigweed, Redroot damage rating (100=total damage to plant; 0=no damage to plant)",[4]; 15.625 g ai/ha,20
same,"plant damage rating, Pigweed, Redroot",[4]; [13],80
same,"Pigweed, Redroot damage rating (100=total damage to plant; 0=no damage to plant)",[4]; 250 g ai/ha,90
same,Velvetleaf damage rating (100=total damage to plant; 0=no damage to plant),[5]; 15.625 g ai/ha,10
same,"plant damage rating, Velvetleaf",[5]; [13],10
same,Velvetleaf damage rating (100=total damage to plant; 0=no damage to plant),[5]; 250 g ai/ha,60
same,Barnyardgrass damage rating,[6]; [14],50
same,Barnyardgrass damage rating (100=total damage to plant; 0=no damage to plant),[6]; [15],70
same,"damage to plant, Barnyardgrass (100=total damage to plant; 0=no damage to plant)",[6]; [16],70
same,"Foxtail, Giant damage rating",[7]; [14],60
same,"Foxtail, Giant damage rating (100=total damage to plant; 0=no damage to plant)",[7]; [15],70
same,"damage to plant, Foxtail, Giant (100=total damage to plant; 0=no damage to plant)",[7]; [16],70
same,"Pigweed, Redroot damage rating",[8]; [14],20
same,"Pigweed, Redroot damage rating (100=total damage to plant; 0=no damage to plant)",[8]; [15],50
same,"damage to plant, Pigweed, Redroot (100=total damage to plant; 0=no damage to plant)",[8]; [16],60
same,Velvetleaf damage rating,[9]; [14],10
same,Velvetleaf damage rating (100=total damage to plant; 0=no damage to plant),[9]; [15],10
same,"damage to plant, Velvetleaf (100=total damage to plant; 0=no damage to plant)",[9]; [16],30
O=C1NCC(c2cccc(OC(F)(F)C(F)F)c2)C1C(=O)Nc1cccc(F)c1F (racemic) [Compound 697],"Plant response rating, Barnyardgrass",[10]; [17],0
same,"Plant response rating (scale of 0 to 100), Barnyardgrass",[10]; 62 g ai/ha,30
same,"Plant response rating (scale of 0 to 100), Barnyardgrass",[10]; 125 g ai/ha,45
same,"Plant response rating (scale of 0 to 100), Barnyardgrass",[10]; 250 g ai/ha,45
same,"Plant response rating, Ducksalad",[11]; [17],40
same,"Plant response rating (scale of 0 to 100), Ducksalad",[11]; 62 g ai/ha,40
same,"Plant response rating (scale of 0 to 100), Ducksalad",[11]; 125 g ai/ha,60
same,"Plant response rating (scale of 0 to 100), Ducksalad",[11]; 250 g ai/ha,100
same,"Plant response rating, Rice",rice (Oryza sativa); [17],0
same,"Plant response rating (scale of 0 to 100), Rice",rice (Oryza sativa); 62 g ai/ha,0
same,"Plant response rating (scale of 0 to 100), Rice",rice (Oryza sativa); 125 g ai/ha,50
same,"Plant response rating (scale of 0 to 100), Rice",rice (Oryza sativa); 250 g ai/ha,70
same,"Plant response rating, Sedge, Umbrella",[12]; [17],0
same,"Plant response rating (scale of 0 to 100), Sedge, Umbrella",[12]; 62 g ai/ha,0
same,"Plant response rating (scale of 0 to 100), Sedge, Umbrella",[12]; 125 g ai/ha,0
same,"Plant response rating (scale of 0 to 100), Sedge, Umbrella",[12]; 250 g ai/ha,0
